Test results published in US12104173B2, “Method for differentiation of human pluripotent stem cell lines in suspension culture” (AGENCY FOR SCIENCE, TECHNOLOGY AND RESEARCH, priority 2018, dated 2024).

Columns and labels:
Test in all cases: CHIR dose: hematopoietic/erythroid differentiation of agitated hPSC-MC aggregates
Assay type in all cases: cell-based, human
BR2 O-neg hiPSC line = tested on: BR2 O-neg hiPSC line
Protocol: (§1) Human pluripotent stem cell-microcarrier (HPSC-MC) aggregates generated from different hPSC lines were differentiated using 3 different CHIR doses (5, 10 and 15 μM for 24 hours) and were evaluated for T-bra (day 2) and KDR+PDGFRβ− (day 4) expression by flow cytometry, induction of key hematopoietic transcription factors by RT-PCR (day 4), hematopoietic precursor expansion (day 14) and erythroblast expansion (day 42).
(§2) Table 2—Hematopoietic differentiation of nine human pluripotent stem cell (hPSC) lines, from expansion in agitated microcarrier culture to erythroblast expansion—This table summarises the different stages of differentiation; hPSC expansion, mesoderm induction, hematopoietic precursor and erythroblast expansion of multiple hPSC-MC aggregate lines differentiated with optimal dose of CHIR-99021. Fold-expansion of hPSC-MC aggregates following 7 days of agitated culture, hematopoietic precursors following 14 days of culture in methylcellulose medium and erythroblast expansion following 24 days in expansion medium are reported. Flow cytometric evaluation of % T-bra+ cells on day 2 and % KDR+ cells on day 4 during mesoderm induction, % CD43+ cells during hematopoietic precursor expansion, % CD235a+ cells and fetal hemoglobin expression during erythroblast expansion stage are summarised. Total erythroid cells per hPSC seeded on day 42 was calculated as number of embryoid bodies derived on day 4 per hPSC seeded*erythroblast fold expansion*percent CD235a+ erythroblast.
(§3) Analysis of Design of experiments (DoE) outcomes and evaluation of selected conditions generated by the MODDE® software allowed the development of an optimized protocol for hematopoietic mesoderm induction of human pluripotent stem cell-microcarrier (hPSC-MC) aggregates initially expanded under continuous agitation. Approximately 2 to 4 million hPSC-MC aggregates in 3 ml of Stemline® II medium were differentiated as follows: day 1; 30 ng/ml of BMP4, 50 ng/ml VEGF165, 12 μM CHIR-99021 (Selleck Chemicals, USA), 50 ng/ml Activin A, day 2; 30 ng/ml of BMP4, 50 ng/ml VEGF165, 50 ng/ml Activin A, day 3: 30 ng/ml of BMP4, 50 ng/ml VEGF165 and 20 ng/ml bFGF. Four days post-differentiation, single cells derived by TrypLE™ Express (ThermoFisher Scientific) treatment and strained through 40 μm cell strainers (Greiner Bio-one, Germany) were used for hematopoietic precursor and erythroblast expansion and erythroblast terminal maturation as detailed herein. Hematopoietic and erythroblast differentiation were monitored by flow cytometry, quantitative real-time PCR, immunoblotting and microscopic imaging. Oxygen binding affinity of differentiated erythroblast was determined using a Hemox Analyzer (TCS Scientific Corp, USA).
(§4) HPSC-MC aggregates were dissociated into single cells by treatment with TrypLE. Express (ThermoFisher Scientific) for 5 minutes at 37° C., passed through 40 μm cell strainer (Greiner Bio-one), centrifuged at 1300 rpm for 3 minutes to pellet cells, and rinsed once with phosphate buffered saline (PBS) before re-suspension in Stemline II medium. Two hundred thousand cells in 100 μl of Stemline II medium were transferred to a 6-well ultra-low attachment plate and cultured with Blast growth medium (BGM) for 2 weeks in static conditions as detailed herein.
(§5) Hematopoietic precursors were mixed with equal volume of Stemline II medium containing 50 ng/ml of SCF (STEMCELL. Technologies) and 3 U/ml EPO (Peprotech, USA), for an additional 7 days. Subsequently, cells were diluted 10-fold with PBS and pelleted by centrifugation at 3000 rpm for 10 minutes. […]

BR7 O-neg hiPSC line = conditions: for Erythroblast expansion Fold-expansion: optimal dose of CHIR-99021, 24 days in erythroblast expansion medium (static), cumulative
Protocol: as §1, §2, §3, §4, §5

D12 O-neg hiPSC line = tested on: D12 O-neg hiPSC line
Protocol: as §1, §2, §3, §4, §5

D9 O-neg hiPSC line = conditions: for Erythroblast expansion Fold-expansion: optimal dose of CHIR-99021, 24 days in erythroblast expansion medium (static), cumulative
Protocol: as §1, §2, §3, §4, §5

IMR90 hiPSC line [1] = conditions: for Erythroblast expansion Fold-expansion: optimal dose of CHIR-99021, 24 days in erythroblast expansion medium (static), cumulative
Protocol: as §1, §2, §3, §4, §5

X13 O-neg hiPSC line [2] = conditions: for Erythroblast expansion Fold-expansion: optimal dose of CHIR-99021, 24 days in erythroblast expansion medium (static), cumulative; for Total erythroid cells per hPSC seeded (day 42): optimal dose of CHIR-99021, CD235a+ erythroid cells
Protocol: as §1, §2, §3, §4, §5

X13 O-neg hiPSC line [3] = conditions: optimal dose of CHIR-99021, day 4
IMR90 hiPSC line [4] = conditions: optimal dose of CHIR-99021, day 4
[5] = 15 μM CHIR dose, day 14 post differentiation
[6] = 15 μM CHIR for 24 hours, day 2, flow cytometry
[7] = 15 μM CHIR for 24 hours, day 4, flow cytometry
[8] = erythroblast expansion medium, up to day 42
[9] = optimal dose of CHIR-99021, 14 days in methyl cellulose medium
[10] = optimal dose of CHIR-99021, 14 days in methyl cellulose medium (static)
[11] = optimal dose of CHIR-99021, day 2
[12] = optimal dose of CHIR-99021, day 4
[13] = optimal dose of CHIR-99021, erythroblast expansion stage
[14] = optimal dose of CHIR-99021, fetal hemoglobin, flow cytometry

## Cc1c[nH]c(-c2cnc(NCCNc3ccc(C#N)cn3)nc2-c2ccc(Cl)cc2Cl)n1 [CHIR-99021, 6-[[2-[[4-(2,4-Dichlorophenyl)-5-(5-methyl-1H-imidazol-2-yl)-2-pyrimidinyl]amino]ethyl]amino]-3-pyridinecarbonitrile]
BR2 O-neg hiPSC line; [5]
  fold-expansion of hematopoietic precursors: 8.07±2.06 fold
BR2 O-neg hiPSC line; [6]
  T-Bra+ cells: 20.1±2.4%
BR2 O-neg hiPSC line; [7]
  KDR+PDGFRβ- cells: 24.07±1.34%
BR2 O-neg hiPSC line; [8]
  erythroblast differentiation: failed to differentiate into erythroid cells
BR2 O-neg hiPSC line; [9]
  Hematopoietic precursor expansion % CD43: 8.7%
BR2 O-neg hiPSC line; [10]
  Hematopoietic precursor expansion Fold-expansion: 8.1 fold
BR2 O-neg hiPSC line; [11]
  Mesoderm induction % T-Bra: 20.1%
BR2 O-neg hiPSC line; [12]
  Mesoderm induction % KDR+ PDGFRα−: 24.1%
BR7 O-neg hiPSC line; [5]
  fold-expansion of hematopoietic precursors: 5.81±0.92 fold
BR7 O-neg hiPSC line; [6]
  T-Bra+ cells: 20.8±3.8%
BR7 O-neg hiPSC line; [7]
  KDR+PDGFRβ- cells: 18.6±1.57%
BR7 O-neg hiPSC line; optimal dose of CHIR-99021
  Total erythroid cells per hPSC seeded (day 42): 12
BR7 O-neg hiPSC line; [9]
  Hematopoietic precursor expansion % CD43: 14.3%
BR7 O-neg hiPSC line; [10]
  Hematopoietic precursor expansion Fold-expansion: 5.8 fold
BR7 O-neg hiPSC line; day 42
  Erythroblast expansion Fold-expansion: 31.5 fold
BR7 O-neg hiPSC line; day 42, listed as CHIR
  Erythroblast expansion Fold-expansion: 31.48±7.7 fold
BR7 O-neg hiPSC line; [11]
  Mesoderm induction % T-Bra: 20.8%
BR7 O-neg hiPSC line; [13]
  Erythroblast expansion % CD235a+: 33.8%
BR7 O-neg hiPSC line; [14]
  Erythroblast expansion Hemoglobin expression: 95.5
D12 O-neg hiPSC line; [5]
  fold-expansion of hematopoietic precursors: 5.26±1.32 fold
D12 O-neg hiPSC line; [6]
  T-Bra+ cells: 10.6±2.78%
D12 O-neg hiPSC line; [7]
  KDR+PDGFRβ- cells: 31.13±5.17%
D12 O-neg hiPSC line; [8]
  erythroblast differentiation: failed to differentiate into erythroid cells
D12 O-neg hiPSC line; [9]
  Hematopoietic precursor expansion % CD43: 22%
D12 O-neg hiPSC line; [10]
  Hematopoietic precursor expansion Fold-expansion: 7.9 fold
D12 O-neg hiPSC line; [11]
  Mesoderm induction % T-Bra: 10.9%
D12 O-neg hiPSC line; [12]
  Mesoderm induction % KDR+ PDGFRα−: 20.7%
D9 O-neg hiPSC line; [6]
  T-Bra+ cells: 39±5.37%
D9 O-neg hiPSC line; [7]
  KDR+PDGFRβ- cells: 18.07±0.6%
D9 O-neg hiPSC line; optimal dose of CHIR-99021
  Total erythroid cells per hPSC seeded (day 42): 63
D9 O-neg hiPSC line; [9]
  Hematopoietic precursor expansion % CD43: 21.3%
D9 O-neg hiPSC line; [10]
  Hematopoietic precursor expansion Fold-expansion: 6.0 fold
D9 O-neg hiPSC line; day 42
  Erythroblast expansion Fold-expansion: 121 fold
D9 O-neg hiPSC line; day 42, listed as CHIR
  Erythroblast expansion Fold-expansion: 121.2±36.89 fold
D9 O-neg hiPSC line; [11]
  Mesoderm induction % T-Bra: 41.8%
D9 O-neg hiPSC line; [13]
  Erythroblast expansion % CD235a+: 57.5%
D9 O-neg hiPSC line; [14]
  Erythroblast expansion Hemoglobin expression: 97.8
IMR90 hiPSC line [1]; [6]
  T-Bra+ cells: 17.22±7.4%
IMR90 hiPSC line [1]; [7]
  KDR+PDGFRβ- cells: 14.2±1.69%
IMR90 hiPSC line [1]; optimal dose of CHIR-99021
  Total erythroid cells per hPSC seeded (day 42): 1300
IMR90 hiPSC line [1]; [9]
  Hematopoietic precursor expansion % CD43: 21.9%
IMR90 hiPSC line [1]; [10]
  Hematopoietic precursor expansion Fold-expansion: 7.9 fold
IMR90 hiPSC line [1]; day 42
  Erythroblast expansion Fold-expansion: 918.1 fold
IMR90 hiPSC line [1]; day 42, listed as CHIR
  Erythroblast expansion Fold-expansion: 918.1±342.4 fold
IMR90 hiPSC line [1]; [11]
  Mesoderm induction % T-Bra: 17.2%
IMR90 hiPSC line [1]; [13]
  Erythroblast expansion % CD235a+: 75.9%
IMR90 hiPSC line [1]; [14]
  Erythroblast expansion Hemoglobin expression: 98.1
X13 O-neg hiPSC line [2]; [5]
  fold-expansion of hematopoietic precursors: 9.93±0.28 fold
X13 O-neg hiPSC line [2]; [6]
  T-Bra+ cells: 60.9±8.55%
X13 O-neg hiPSC line [2]; [7]
  KDR+PDGFRβ- cells: 40.8±1.34%
X13 O-neg hiPSC line [2]; [9]
  Hematopoietic precursor expansion % CD43: 43.9%
X13 O-neg hiPSC line [2]; [10]
  Hematopoietic precursor expansion Fold-expansion: 9.9 fold
X13 O-neg hiPSC line [2]; day 42
  Erythroblast expansion Fold-expansion: 12605 fold
X13 O-neg hiPSC line [2]; day 42, listed as CHIR
  Erythroblast expansion Fold-expansion: 12605±2126 fold
X13 O-neg hiPSC line [2]
  Total erythroid cells per hPSC seeded (day 42): 7607
X13 O-neg hiPSC line [2]; listed as CHIR
  Total erythroid cells per hPSC seeded (day 42): 7607±1016
X13 O-neg hiPSC line [2]; [11]
  Mesoderm induction % T-Bra: 60.9%
X13 O-neg hiPSC line [2]; [13]
  Erythroblast expansion % CD235a+: 67.4%
X13 O-neg hiPSC line [2]; [14]
  Erythroblast expansion Hemoglobin expression: 96.9
X13 O-neg hiPSC line [3]
  Mesoderm induction % KDR+ PDGFRα−: 40.8%
IMR90 hiPSC line [4]
  Mesoderm induction % KDR+ PDGFRα−: 14.2%
